How the values were obtained:
[1] = Dilution and pH determination for sample solutions; format: physicochemical
Method: Method: 0.2500 g of a sample was accurately weighed and added to a 25 mL volumetric flask, dissolved with purified water, and diluted to a specified scale to prepare a 1.00% (10,000.0 ppm) initial solution. The initial solution was diluted with purified water in different ratios to prepare a series of solutions with a concentration of 1,000.0 ppm to 0.1 ppm. A pH value of each sample was determined three times.

[2] = tested on: Phytophthora capsici LT263; experiment: Inducing resistance of Nicotiana benthamiana leaves to phytophthora blight; format: in vivo; details: inoculated on day 7 and day 10, read 36 h after inoculation
Method: At 36 h after the inoculation, results were observed.

DTA/TG thermal analysis = format: physicochemical; details: nitrogen, 10° C./min, 25° C. to 500° C.
Method: Test instrument: Shimadzu DTG-60 DTA-TG synchronous analyzer.
Test samples: Sodium iron chlorin and iron chlorin.
Reference: Aluminum oxide.
Heating rate: 10° C./min.
Heating range: 25° C. to 500° C.
Sample weight: 4.3 mg to 4.5 mg.
Analysis software: ta60WS Ver. 2.11.
Results were shown in FIG. 1, including a DTA comparison chart (the upper part in FIG. 1) and a TG comparison chart (the lower part in FIG. 1) for the samples.

rice [3] = experiment: Rice yield in the leaf blast field experiment; format: in vivo, rice (Nanjing 9108); details: 3 mg/mu sprayed 3 times
Method: (§1) The experiment was conducted according to experimental specifications in the field efficacy standard of GB/T17980.19-2000. In the experiment, the following two treatments were set: a first treatment: sodium iron chlorin was applied, and a second treatment: a blank control (water) was applied. A test sample was fully dissolved and diluted, and then applied. Based on the characteristics of disease and pest control, an agent was applied once at each of a late tillering stage (Jul. 22, 2021), a jointing-booting stage (Aug. 16, 2021), and a full heading stage (Aug. 30, 2021). […] Water amounts required per mu for the three times were 30 L, 45 L, and 45 L (sample concentrations: 0.1 ppm, 0.067 ppm, and 0.067 ppm), respectively. An area for each treatment was 3 mu. According to a five-point sampling method, 5 sampling points (20 m^2 per sampling point) were set for each treatment. The occurrence of leaf blast in rice was investigated in the field before harvesting.
The harvesting was conducted on Nov. 8, 2021. On the eve of harvesting, the yield composition and structure were investigated. Then a yield per mu was measured.

leaf blast in rice = experiment: Field control of leaf blast in rice; format: in vivo, rice (Nanjing 9108); details: 3 mg/mu sprayed 3 times (0.1, 0.067, 0.067 ppm)
Method: as §1

wheat = experiment: Germination of wheat and growth of seedlings; format: in vivo, wheat (Huaimai 35); details: for Root length / Root number / Root weight / Seedling height / Seedling weight: wheat seedlings
Method: Method: 3 replicates were set for each treatment. 50 full seeds with a consistent size were selected each time for each sample, disinfected with sodium hypochlorite for 5 min, rinsed with clear water, and placed in a plastic box filled with 100 g of a sand. 25 mL of a prepared sample solution was poured into the plastic box, and the seeds were arranged regularly. The plastic box was covered with a lid, and then incubated in a 25° C. incubator. The germination was determined when a length of a sprout of a wheat seed exceeded a half of a diameter (long axis) of the wheat seed (determination criterion). According to the growth of wheat, the germ exposure of seeds and the number of germinated seeds were recorded every day. On day 6, 10 wheat seedlings were randomly selected, and a root length, a plant height, and a root number were determined. On day 7, a root weight and an aboveground part weight were determined. All index data was produced based on 3 replicates.

rice [4] = experiment: Alleviation of herbicide damage in rice; format: in vivo, rice (Jinjing 818); details: 0.25 ppm
Method: Method: A treatment plot of 1.5 mu and a control plot of 1.5 mu were set. The sample was sprayed twice after the herbicide damage occurred in rice sprayed with a herbicide. Clear water was adopted as a blank control. Specific operations were as follows:
On June 20 when weeds had 3 leaves and rice had 3 to 3.5 leaves, the treatment plot and the control plot both were treated with 4% imazamox at 200 mL/mu and 10% pyribenzoxim at 40 mL/mu by a stem and leaf spray method, with 30 kg of water per mu. One week later, a weeding effect was prominent, but rice underwent obvious pesticide damage. 10 d after the herbicide application (June 30), the treatment plot was sprayed with the sample at 7.5 mg/mu by a stem and leaf spray method, with a solution of 30 L per mu. The control plot was sprayed with clear water. At an inflorescence emergence stage of rice (August 25), the spraying was conducted once again by the same method.

sheath blight in rice = experiment: Field control of sheath blight in rice; format: in vivo, rice (Nanjing 9108); details: 3.0 mg/mu sprayed 3 times (0.100, 0.067, 0.067 ppm)
Method: A test sample was dissolved, diluted, thoroughly stirred, and then applied, with an application area of 3 mu for each treatment. Before harvesting, five-point sampling (20 m^2 per sampling point) was conducted for each treatment to determine the details of sheath blight in rice.

[5] = Water solubility of the prepared salts; format: physicochemical
[6] = 7.5 mg/mu sprayed twice after imazamox/pyribenzoxim damage

Substance: sodium iron chlorin [Example 21]
- pH ([1]; 0.1 ppm in purified water): (6.79)
- pH ([1]; 1.0 ppm in purified water): (6.89)
- pH ([1]; 10.0 ppm in purified water): (7.23)
- pH ([1]; 20.0 ppm in purified water): (7.42)
- pH ([1]; 30.0 ppm in purified water): (7.51)
- pH ([1]; 100.0 ppm in purified water): (8.34)
- pH ([1]; 1000.0 ppm in purified water): (9.71)
- pH ([1]; 10000.0 ppm in purified water): (10.41)
- lesion area after LT263 inoculation compared with DDW ([2]; 2.0 ppm injected into leaves): significantly reduce a lesion area
- lesion area after LT263 inoculation compared with DDW ([2]; 20.0 ppm injected into leaves): significantly reduce a lesion area
- thermal stability compared with the acidic sample (DTA/TG thermal analysis): significantly-stronger thermal stability
- Ear number per mu (rice [3]): 22.40 10,000
- Filled grain number per ear (rice [3]): 117.39
- Thousand-grain weight (rice [3]): 26.9 g
- Yield (rice [3]): 616.85 kg/mu
- Yield increase rate (rice [3]; versus water): 7.1%
- Average disease index (leaf blast in rice): 20.09%
- Average incidence rate (leaf blast in rice): 8.0%
- Corrected control effect (leaf blast in rice): 43.93%
- Germination rate of wheat (wheat; 0.0025 ppm): 94.0%
- Root length (wheat; 0.0025 ppm): 9.30 cm
- Root number (wheat; 0.0025 ppm): 5.3
- Root weight (wheat; 0.0025 ppm): 0.0953 g
- Seedling height (wheat; 0.0025 ppm): 8.88 cm
- Seedling weight (wheat; 0.0025 ppm): 0.170 g
- Germination rate of wheat (wheat; 0.0250 ppm): 95.3%
- Root length (wheat; 0.0250 ppm): 10.17 cm
- Root number (wheat; 0.0250 ppm): 5.2
- Root weight (wheat; 0.0250 ppm): 0.1027 g
- Seedling height (wheat; 0.0250 ppm): 9.13 cm
- Seedling weight (wheat; 0.0250 ppm): 0.178 g
- Germination rate of wheat (wheat; 0.2500 ppm): 93.3%
- Root length (wheat; 0.2500 ppm): 9.64 cm
- Root number (wheat; 0.2500 ppm): 4.9
- Root weight (wheat; 0.2500 ppm): 0.0867 g
- Seedling height (wheat; 0.2500 ppm): 7.95 cm
- Seedling weight (wheat; 0.2500 ppm): 0.145 g
- Actual yield (rice [4]; [6]): 675 kg/mu
- Ear number/mu (rice [4]; [6]): 275945.5
- Filled grain number/ear (rice [4]; [6]): 97.64
- Grain number/ear (rice [4]; [6]): 104.5
- Seed set rate (rice [4]; [6]): 0.9344
- Theoretical yield (rice [4]; [6]): 816.8 kg/mu
- Thousand-grain weight (rice [4]; [6]): 30.30 g
- increase of yield per mu (rice [4]; 7.5 mg/mu sprayed twice, versus clear water): ≥ 22%
- Corrected control (sheath blight in rice): 45.16%
- Disease index (sheath blight in rice): 21.61%
- Diseased plant rate (sheath blight in rice): 10.4%
- solubility in water [5]: easily soluble
